pIC50: −log10 of the molar value.
How the values were obtained:
Format in all cases: biochemical
human vanin-1 [1] = target: T1, human vanin-1 (Homo sapiens (Human), UniProt O95497); assay: Human Vanin-1 Enzyme Assay 2; conditions: 1 nM human vanin-1, 10 uM substrate, 45 min
Procedure: Human Vanin-1 Enzyme Assay 2.
The in vitro assay measures enzymatic cleavage of the fluorescently-labeled vanin substrate, pantetheine 7-amino-4-trifluoromethylcoumarin, by human vanin-1.
The vanin-1 protein was prepared in-house from a construct expressing the extracellular domain of human vanin-1 (GenBank ID NM_004666) preceded N-terminally by the honey bee melittin signal peptide, a GSG linker sequence, a His6X tag and a FLAG tag. The secreted, soluble enzyme was purified from the conditioned medium from a CHO cell line stably expressing the resulting protein. Enzyme purification was performed through sequential Ni NTA and size-exclusion chromatography steps.
On the day of the assay, dose response plates were prepared by diluting the inhibitors in DMSO at compound concentration 100-fold the final in-assay concentration. Concentration series were prepared by serially diluting in DMSO in a half-log series for a total of 11 data points. Intermediate compound plates containing compound in 10% DMSO were then created by diluting the compounds 10-fold in assay buffer consisting of 50 mM Tris-HCl pH=8.0, 50 mM KCl, 0.005% Brij-35 and 1.5 mM cysteamine. To begin the assay 3 μL were transferred from the intermediate compound plate to the assay plate.
A working solution of human vanin-1 was prepared by diluting the enzyme stock to 1.25 nM in assay buffer. Next, 24 μL of the vanin-1 working solution were transferred to the assay plate. The enzyme reaction was then initiated by the addition of 3 μL of 100 μM pantetheine 7-amino-4-trifluoromethylcoumarin prepared in assay buffer. The final concentrations in the assay were 1 nM human vanin-1 and 10 uM substrate. The final concentration of DMSO was 1%. The assay plates were incubated for 45 minutes and before they were read on a Spectramax M5 using a 405 nm excitation wavelength and a 505 nm emission wavelength for detection.

human vanin-1 [2] = target: T1, human vanin-1; assay: Human Vanin-1 Enzyme Assay 3; conditions: 2 nM human vanin-1, 10 uM substrate, 15 min
How it was run: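 His/FLAG-tagged extracellular domain of human vanin-1 from CHO cells, used at 2 nM final, with 10 uM pantetheine-AFC substrate. Buffer: 50 mM Tris-HCl pH 8.0, 50 mM KCl, 0.005% Brij-35, 1.5 mM cysteamine, 1% DMSO. 15 min at room temperature; fluorescence read at 405/505 nm across an 11-point 2-fold dilution series.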

human vanin-1 [3] = target: T1, human vanin-1; assay: Human Vanin-1 Enzyme Assay 1; conditions: 25 pM human vanin-1, 50 uM pantetheine 7-amino-4-trifluoromethylcoumarin, 30 min preincubation, 60 min
How it was run: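 Purified His6/FLAG-tagged extracellular domain of human vanin-1, secreted from CHO cells, at 25 pM final in 50 mM Tris-HCl pH 8.0, 50 mM KCl, 0.005% Brij-35, 1.6 mM cysteamine, 0.5% DMSO. Inhibitor preincubated 30 min at room temperature; 50 uM pantetheine-AFC substrate, 60 min, fluorescence at 405/510 nm; 11-point four-fold dilution series.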

T1 sequence (O95497 22-491): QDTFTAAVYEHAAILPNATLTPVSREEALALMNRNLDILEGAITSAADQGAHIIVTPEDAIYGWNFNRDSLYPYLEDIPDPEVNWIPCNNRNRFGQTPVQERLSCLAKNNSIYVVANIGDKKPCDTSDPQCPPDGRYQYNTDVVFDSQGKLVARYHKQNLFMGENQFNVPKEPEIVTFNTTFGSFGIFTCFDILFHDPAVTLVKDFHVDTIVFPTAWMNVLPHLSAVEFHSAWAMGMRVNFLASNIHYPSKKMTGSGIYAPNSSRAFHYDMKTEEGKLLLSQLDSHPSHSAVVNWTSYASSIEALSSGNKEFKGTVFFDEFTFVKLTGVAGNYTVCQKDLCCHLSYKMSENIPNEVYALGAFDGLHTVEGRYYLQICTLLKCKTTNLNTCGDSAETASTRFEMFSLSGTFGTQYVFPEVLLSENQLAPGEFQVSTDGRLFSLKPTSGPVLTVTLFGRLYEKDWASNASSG

Structure (SMILES)	pIC50 (human vanin-1 [1])	pIC50 (human vanin-1 [2])	pIC50 (human vanin-1 [3])
CS(=O)(=O)c1cccc(C(=O)c2cnc(NCc3ccc(C(N)=O)cc3)nc2)c1 [Example 125, 4-[({5-[3-(methylsulfonyl)benzoyl]pyrimidin-2-yl}amino)methyl] benzamide]	7.66	< 5.90	–
N#Cc1cccc(C(=O)c2cnc(NCc3ccc(C(N)=O)nc3)nc2)c1 [Example 105, 5-({[5-(3-cyanobenzoyl)pyrimidin-2-yl]amino}methyl) pyridine-2-carboxamide]	6.71	6.76	6.84
O=C(c1ccccc1)c1cnc(NCc2cncnc2)nc1 [Example 109, phenyl{2-[(pyrimidin-5-ylmethyl)amino]pyrimidin-5-yl}methanone]	6.84	7.02	6.84
CC(C)(Nc1ncc(C(=O)c2ccccc2)cn1)c1ccccc1 [Example 110, phenyl{2-[(2-phenylpropan-2-yl)amino]pyrimidin-5-yl}methanone]	6.62	7.20	6.37
CC(C)(Nc1ncc(C(=O)c2cccc(C(F)(F)F)c2)cn1)c1ccccc1 [Example 121, {2-[(2-phenylpropan-2-yl)amino]pyrimidin-5-yl}[3-(trifluoromethyl)phenyl]methanone]	7.30	8.04	7.49
N#Cc1cccc(C(=O)c2cnc(NCc3ccc(C(N)=O)cc3)nc2)c1 [Example 68, 4-({[5-(3-cyanobenzoyl)pyrimidin-2-yl]amino}methyl) benzamide]	7.14	7.10	6.97
COc1cccc(C(=O)c2cnc(NCc3ccc(F)cc3)nc2)c1 [Example 37, {2-[(4-fluorobenzyl)amino]pyrimidin-5-yl}(3-methoxyphenyl) methanone]	6.65	7.11	–
O=C(c1cnc(NCc2cccnc2)nc1)c1cccc(C(F)(F)F)c1 [Example 12, {2-[(pyridin-3-ylmethyl)amino]pyrimidin-5-yl}[3-(trifluoromethyl)phenyl]methanone]	8.54	9.30	8.72
CC(C)(Nc1ncc(C(=O)c2cccc(Cl)c2)cn1)c1ccccc1 [Example 25, (3-chlorophenyl){2-[(2-phenylpropan-2-yl)amino]pyrimidin-5-yl}methanone]	7.19	7.94	7.13
N#Cc1cccc(C(=O)c2cnc(NCc3cccnc3)nc2)c1 [Example 118, 3-({2-[(pyridin-3-ylmethyl)amino]pyrimidin-5-yl}carbonyl) benzonitrile]	7.95	8.34	8.40
Cc1cccc(C(=O)c2cnc(NCc3ccc(C(N)=O)cc3)nc2)c1 [Example 23, 4-({[5-(3-methylbenzoyl)pyrimidin-2-yl]amino}methyl) benzamide]	7.01	6.80	6.75
Cc1cccc(C(=O)c2cnc(NCc3cccnc3)nc2)c1 [Example 14, (3-methylphenyl){2-[(pyridin-3-ylmethyl)amino]pyrimidin-5-yl}methanone]	7.50	> 7.89	7.32
CS(=O)(=O)c1cccc(C(=O)c2cnc(NCc3cccnc3)nc2)c1 [Example 13, [3-(methylsulfonyl)phenyl]{2-[(pyridin-3-ylmethyl)amino]pyrimidin-5-yl}methanone]	8.70	< 7.58	–
O=C(c1cnc(NC2(c3cncnc3)CC2)nc1)c1cccc(C(F)(F)F)c1 [Example 16, (2-{[1-(pyrimidin-5-yl)cyclopropyl]amino}pyrimidin-5-yl)[3-(trifluoromethyl)phenyl]methanone]	8.59	–	8.77
COc1ccc(C(=O)c2cnc(NC(C)c3cncnc3)nc2)cc1 (stereo not drawn) [Example 138, (4-methoxyphenyl) (2-{[1-(pyrimidin-5-yl)ethyl]amino}pyrimidin-5-yl)methanone]	6.36	–	6.71
O=C(c1cnc(NCc2cncnc2)nc1)c1cccc(C(F)(F)F)c1 [Example 119, {2-[(pyrimidin-5-ylmethyl)amino]pyrimidin-5-yl}[3-(trifluoromethyl)phenyl]methanone]	7.95	8.21	–

Structure (SMILES)	pIC50 (human vanin-1 [1])	pIC50 (human vanin-1 [2])	pIC50 (human vanin-1 [3])
Cn1cc(C(=O)c2cnc(NCc3cccnc3)nc2)cn1 [Example 103, (1-methyl-1H-pyrazol-4-yl){2-[(pyridin-3-ylmethyl)amino]pyrimidin-5-yl}methanone]	6.25	6.42	–
COc1cccc(C(=O)c2cnc(NCc3ccc(N4CCN(C)CC4)cc3)nc2)c1 [Example 154, (3-methoxyphenyl) (2-{[4-(4-methylpiperazin-1-yl)benzyl]amino}pyrimidin-5-yl)methanone]	5.19	5.42	–
N#Cc1cccc(C(=O)c2cnc(NCc3cc[nH]c(=O)c3)nc2)c1 [Example 72, 3-[(2-{[(2-oxo-1,2-dihydropyridin-4-yl)methyl]amino}pyrimidin-5-yl)carbonyl] benzonitrile]	7.06	–	6.73
N#Cc1ccc(F)c(C(=O)c2cnc(NCc3cncnc3)nc2)c1 [Example 131, 4-fluoro-3-({2-[(pyrimidin-5-ylmethyl)amino]pyrimidin-5-yl}carbonyl) benzonitrile]	6.43	–	6.27
N#Cc1cccc(C(=O)c2cnc(NC3(c4ccccc4)CCC3)nc2)c1 [Example 129, 3-({2-[(1-phenylcyclobutyl)amino]pyrimidin-5-yl}carbonyl) benzonitrile]	7.91	–	8.00
O=C(c1cnc(NCc2cccnn2)nc1)c1cccc(C(F)(F)F)c1 [Example 67, {2-[(pyridazin-3-ylmethyl)amino]pyrimidin-5-yl}[3-(trifluoromethyl)phenyl]methanone]	7.32	7.09	–
Cn1ncc2ccc(C(=O)c3cnc(NCc4cncnc4)nc3)cc21 [Example 137, (1-methyl-1H-indazol-6-yl){2-[(pyrimidin-5-ylmethyl)amino]pyrimidin-5-yl}methanone]	5.99	–	6.30
CS(=O)(=O)c1cccc(C(=O)c2cnc(NC3(c4cncnc4)CC3)nc2)c1 [Example 17, [3-(methylsulfonyl)phenyl](2-{[1-(pyrimidin-5-yl)cyclopropyl]amino}pyrimidin-5-yl)methanone]	8.74	–	9.10
COc1cccc(C(=O)c2cnc(NC3(c4cncnc4)CC3)nc2)c1 [Example 18, (3-methoxyphenyl)(2-{[1-(pyrimidin-5-yl)cyclopropyl]amino}pyrimidin-5-yl)methanone]	7.91	–	7.58
CC(Nc1ccc(C(=O)c2cccc(C#N)c2)cn1)c1cncnc1 (stereo not drawn) [Example 144, 3-[(6-{[1-(pyrimidin-5-yl)ethyl]amino}pyridin-3-yl)carbonyl] benzonitrile]	7.70	–	7.90
N#Cc1cc(F)cc(C(=O)c2cnc(NCc3cncnc3)nc2)c1 [Example 130, 3-fluoro-5-({2-[(pyrimidin-5-ylmethyl)amino]pyrimidin-5-yl}carbonyl) benzonitrile]	6.54	–	6.32
CC(Nc1ncc(C(=O)c2cccc(C#N)c2)cn1)c1ccc(C(N)=O)cc1 (single isomer, unassigned; (+)) [Example 10, (+)-4-(1-{[5-(3-cyanobenzoyl)pyrimidin-2-yl]amino}ethyl)benzamide]	< 5.00	–	< 4.70
N#Cc1cccc(C(=O)c2cnc(NCc3ccc(N)nc3)nc2)c1 [Example 6, 3-[(2-{[(6-aminopyridin-3-yl)methyl]amino}pyrimidin-5-yl)carbonyl]benzonitrile]	7.61	–	7.43
N#Cc1cc(C(=O)c2cnc(NCc3cncnc3)nc2)ccc1F [Example 135, 2-fluoro-5-({2-[(pyrimidin-5-ylmethyl)amino]pyrimidin-5-yl}carbonyl) benzonitrile]	7.17	–	7.32
CS(=O)(=O)c1cccc(C(=O)c2cnc(NCc3cncnc3)nc2)c1 [Example 20, [3-(methylsulfonyl)phenyl]{2-[(pyrimidin-5-ylmethyl)amino]pyrimidin-5-yl}methanone]	7.77	–	8.03

Source: US10308615B2, “Heterocyclic compounds as inhibitors of Vanin-1 enzyme” (Pfizer Inc., priority 2015, dated 2019)
